Experimental data as given in ChEMBL document CHEMBL1140070, “Synthesis, structural studies and biological properties of new TBA analogues containing an acyclic nucleotide” (2008).

Experiments:
[1] = tested on: Plasma; assay: Anticoagulant potency in citreated human plasma assessed as prolongation of thromboplastin-induced prothrombin time at 2 uM by coagulometer; type: functional
[2] = tested on: Plasma; assay: Anticoagulant potency in citreated human plasma assessed as prolongation of thromboplastin-induced prothrombin time at 20 uM by coagulometer; type: functional
[3] = target: Prothrombin (Homo sapiens) (UniProt P00734); assay: Binding affinity to human thrombin assessed as concentration required to double fibrinogen clotting time by coagulometer

Activity [3] | SMILES | Activity [1] | Activity [2]
238 nM | Cc1cn(CC(C)(COP(=O)(O)OC[C@H]2O[C@@H](n3cc(C)c(=O)[nH]c3=O)C[C@@H]2OP(=O)(O)OC[C@H]2O[C@@H](n3cnc4c(=O)[nH]c(N)nc43)[C@H](O)[C@@H]2OP(=O)(O)OC[C@H]2O[C@@H](n3cnc4c(=O)[nH]c(N)nc43)[C@H](O)[C@@H]2OP(=O)(O)OC[C@H]2O[C@@H](n3cc(C)c(=O)[nH]c3=O)C[C@@H]2OP(=O)(O)OC[C@H]2O[C@@H](n3cnc4c(=O)[nH]c(N)nc43)[C@H](O)[C@@H]2OP(=O)(O)OC[C@H]2O[C@@H](n3cc(C)c(=O)[nH]c3=O)C[C@@H]2OP(=O)(O)OC[C@H]2O[C@@H](n3cnc4c(=O)[nH]c(N)nc43)[C@H](O)[C@@H]2OP(=O)(O)OC[C@H]2O[C@@H](n3cnc4c(=O)[nH]c(N)nc43)[C@H](O)[C@@H]2OP(=O)(O)OC[C@H]2O[C@@H](n3cc(C)c(=O)[nH]c3=O)C[C@@H]2OP(=O)(O)OC[C@H]2O[C@@H](n3cc(C)c(=O)[nH]c3=O)C[C@@H]2OP(=O)(O)OC[C@H]2O[C@@H](n3cnc4c(=O)[nH]c(N)nc43)[C@H](O)[C@@H]2OP(=O)(O)OC[C@H]2O[C@@H](n3cnc4c(=O)[nH]c(N)nc43)[C@H](O)[C@@H]2O)COP(=O)(O)O[C@H]2[C@@H](O)[C@H](n3cnc4c(=O)[nH]c(N)nc43)O[C@@H]2COP(=O)(O)O[C@H]2[C@@H](O)[C@H](n3cnc4c(=O)[nH]c(N)nc43)O[C@@H]2CO)c(=O)[nH]c1=O (stereo partly specified) | 14.3 s | 35.15 s
70 nM | Cc1cn(CC(C)(COP(=O)(O)OC[C@H]2O[C@@H](n3cnc4c(=O)[nH]c(N)nc43)[C@H](O)[C@@H]2OP(=O)(O)OC[C@H]2O[C@@H](n3cc(C)c(=O)[nH]c3=O)C[C@@H]2OP(=O)(O)OC[C@H]2O[C@@H](n3cnc4c(=O)[nH]c(N)nc43)[C@H](O)[C@@H]2OP(=O)(O)OC[C@H]2O[C@@H](n3cnc4c(=O)[nH]c(N)nc43)[C@H](O)[C@@H]2OP(=O)(O)OC[C@H]2O[C@@H](n3cc(C)c(=O)[nH]c3=O)C[C@@H]2OP(=O)(O)OC[C@H]2O[C@@H](n3cc(C)c(=O)[nH]c3=O)C[C@@H]2OP(=O)(O)OC[C@H]2O[C@@H](n3cnc4c(=O)[nH]c(N)nc43)[C@H](O)[C@@H]2OP(=O)(O)OC[C@H]2O[C@@H](n3cnc4c(=O)[nH]c(N)nc43)[C@H](O)[C@@H]2O)COP(=O)(O)O[C@H]2[C@@H](O)[C@H](n3cnc4c(=O)[nH]c(N)nc43)O[C@@H]2COP(=O)(O)O[C@H]2[C@@H](O)[C@H](n3cnc4c(=O)[nH]c(N)nc43)O[C@@H]2COP(=O)(O)O[C@H]2C[C@H](n3cc(C)c(=O)[nH]c3=O)O[C@@H]2COP(=O)(O)O[C@H]2C[C@H](n3cc(C)c(=O)[nH]c3=O)O[C@@H]2COP(=O)(O)O[C@H]2[C@@H](O)[C@H](n3cnc4c(=O)[nH]c(N)nc43)O[C@@H]2COP(=O)(O)O[C@H]2[C@@H](O)[C@H](n3cnc4c(=O)[nH]c(N)nc43)O[C@@H]2CO)c(=O)[nH]c1=O (stereo partly specified) | 24.67 s | 60.2 s
210 nM | Cc1cn(CC(C)(COP(=O)(O)OC[C@H]2O[C@@H](n3cnc4c(=O)[nH]c(N)nc43)[C@H](O)[C@@H]2OP(=O)(O)OC[C@H]2O[C@@H](n3cnc4c(=O)[nH]c(N)nc43)[C@H](O)[C@@H]2OP(=O)(O)OC[C@H]2O[C@@H](n3cc(C)c(=O)[nH]c3=O)C[C@@H]2OP(=O)(O)OC[C@H]2O[C@@H](n3cc(C)c(=O)[nH]c3=O)C[C@@H]2OP(=O)(O)OC[C@H]2O[C@@H](n3cnc4c(=O)[nH]c(N)nc43)[C@H](O)[C@@H]2OP(=O)(O)OC[C@H]2O[C@@H](n3cnc4c(=O)[nH]c(N)nc43)[C@H](O)[C@@H]2O)COP(=O)(O)O[C@H]2[C@@H](O)[C@H](n3cnc4c(=O)[nH]c(N)nc43)O[C@@H]2COP(=O)(O)O[C@H]2C[C@H](n3cc(C)c(=O)[nH]c3=O)O[C@@H]2COP(=O)(O)O[C@H]2[C@@H](O)[C@H](n3cnc4c(=O)[nH]c(N)nc43)O[C@@H]2COP(=O)(O)O[C@H]2[C@@H](O)[C@H](n3cnc4c(=O)[nH]c(N)nc43)O[C@@H]2COP(=O)(O)O[C@H]2C[C@H](n3cc(C)c(=O)[nH]c3=O)O[C@@H]2COP(=O)(O)O[C@H]2C[C@H](n3cc(C)c(=O)[nH]c3=O)O[C@@H]2COP(=O)(O)O[C@H]2[C@@H](O)[C@H](n3cnc4c(=O)[nH]c(N)nc43)O[C@@H]2COP(=O)(O)O[C@H]2[C@@H](O)[C@H](n3cnc4c(=O)[nH]c(N)nc43)O[C@@H]2CO)c(=O)[nH]c1=O (stereo partly specified) | 13.23 s | 34.65 s
175 nM | Cc1cn([C@H]2C[C@H](OP(=O)(O)OC[C@H]3O[C@@H](n4cnc5c(=O)[nH]c(N)nc54)[C@H](O)[C@@H]3OP(=O)(O)OC[C@H]3O[C@@H](n4cnc5c(=O)[nH]c(N)nc54)[C@H](O)[C@@H]3OP(=O)(O)OC[C@H]3O[C@@H](n4cc(C)c(=O)[nH]c4=O)C[C@@H]3OP(=O)(O)OC[C@H]3O[C@@H](n4cc(C)c(=O)[nH]c4=O)C[C@@H]3OP(=O)(O)OC[C@H]3O[C@@H](n4cnc5c(=O)[nH]c(N)nc54)[C@H](O)[C@@H]3OP(=O)(O)OC[C@H]3O[C@@H](n4cnc5c(=O)[nH]c(N)nc54)[C@H](O)[C@@H]3O)[C@@H](COP(=O)(O)O[C@H]3[C@@H](O)[C@H](n4cnc5c(=O)[nH]c(N)nc54)O[C@@H]3COP(=O)(O)O[C@H]3C[C@H](n4cc(C)c(=O)[nH]c4=O)O[C@@H]3COP(=O)(O)O[C@H]3[C@@H](O)[C@H](n4cnc5c(=O)[nH]c(N)nc54)O[C@@H]3COP(=O)(O)O[C@H]3[C@@H](O)[C@H](n4cnc5c(=O)[nH]c(N)nc54)O[C@@H]3COP(=O)(O)O[C@H]3C[C@H](n4cc(C)c(=O)[nH]c4=O)O[C@@H]3COP(=O)(O)O[C@H]3C[C@H](n4cc(C)c(=O)[nH]c4=O)O[C@@H]3COP(=O)(O)O[C@H]3[C@@H](O)[C@H](n4cnc5c(=O)[nH]c(N)nc54)O[C@@H]3COP(=O)(O)O[C@H]3[C@@H](O)[C@H](n4cnc5c(=O)[nH]c(N)nc54)O[C@@H]3CO)O2)c(=O)[nH]c1=O [THROMBIN APTAMER] | 22.6 s | 53.68 s
78 nM | Cc1cn(CC(C)(COP(=O)(O)OC[C@H]2O[C@@H](n3cc(C)c(=O)[nH]c3=O)C[C@@H]2OP(=O)(O)OC[C@H]2O[C@@H](n3cnc4c(=O)[nH]c(N)nc43)[C@H](O)[C@@H]2OP(=O)(O)OC[C@H]2O[C@@H](n3cnc4c(=O)[nH]c(N)nc43)[C@H](O)[C@@H]2O)COP(=O)(O)O[C@H]2[C@@H](O)[C@H](n3cnc4c(=O)[nH]c(N)nc43)O[C@@H]2COP(=O)(O)O[C@H]2[C@@H](O)[C@H](n3cnc4c(=O)[nH]c(N)nc43)O[C@@H]2COP(=O)(O)O[C@H]2C[C@H](n3cc(C)c(=O)[nH]c3=O)O[C@@H]2COP(=O)(O)O[C@H]2[C@@H](O)[C@H](n3cnc4c(=O)[nH]c(N)nc43)O[C@@H]2COP(=O)(O)O[C@H]2C[C@H](n3cc(C)c(=O)[nH]c3=O)O[C@@H]2COP(=O)(O)O[C@H]2[C@@H](O)[C@H](n3cnc4c(=O)[nH]c(N)nc43)O[C@@H]2COP(=O)(O)O[C@H]2[C@@H](O)[C@H](n3cnc4c(=O)[nH]c(N)nc43)O[C@@H]2COP(=O)(O)O[C@H]2C[C@H](n3cc(C)c(=O)[nH]c3=O)O[C@@H]2COP(=O)(O)O[C@H]2C[C@H](n3cc(C)c(=O)[nH]c3=O)O[C@@H]2COP(=O)(O)O[C@H]2[C@@H](O)[C@H](n3cnc4c(=O)[nH]c(N)nc43)O[C@@H]2COP(=O)(O)O[C@H]2[C@@H](O)[C@H](n3cnc4c(=O)[nH]c(N)nc43)O[C@@H]2CO)c(=O)[nH]c1=O (stereo partly specified) | 18.07 s | 44.83 s
100 nM | Cc1cn(CC(C)(COP(=O)(O)OC[C@H]2O[C@@H](n3cnc4c(=O)[nH]c(N)nc43)[C@H](O)[C@@H]2OP(=O)(O)OC[C@H]2O[C@@H](n3cnc4c(=O)[nH]c(N)nc43)[C@H](O)[C@@H]2O)COP(=O)(O)O[C@H]2C[C@H](n3cc(C)c(=O)[nH]c3=O)O[C@@H]2COP(=O)(O)O[C@H]2[C@@H](O)[C@H](n3cnc4c(=O)[nH]c(N)nc43)O[C@@H]2COP(=O)(O)O[C@H]2[C@@H](O)[C@H](n3cnc4c(=O)[nH]c(N)nc43)O[C@@H]2COP(=O)(O)O[C@H]2C[C@H](n3cc(C)c(=O)[nH]c3=O)O[C@@H]2COP(=O)(O)O[C@H]2[C@@H](O)[C@H](n3cnc4c(=O)[nH]c(N)nc43)O[C@@H]2COP(=O)(O)O[C@H]2C[C@H](n3cc(C)c(=O)[nH]c3=O)O[C@@H]2COP(=O)(O)O[C@H]2[C@@H](O)[C@H](n3cnc4c(=O)[nH]c(N)nc43)O[C@@H]2COP(=O)(O)O[C@H]2[C@@H](O)[C@H](n3cnc4c(=O)[nH]c(N)nc43)O[C@@H]2COP(=O)(O)O[C@H]2C[C@H](n3cc(C)c(=O)[nH]c3=O)O[C@@H]2COP(=O)(O)O[C@H]2C[C@H](n3cc(C)c(=O)[nH]c3=O)O[C@@H]2COP(=O)(O)O[C@H]2[C@@H](O)[C@H](n3cnc4c(=O)[nH]c(N)nc43)O[C@@H]2COP(=O)(O)O[C@H]2[C@@H](O)[C@H](n3cnc4c(=O)[nH]c(N)nc43)O[C@@H]2CO)c(=O)[nH]c1=O (stereo partly specified) | 17.5 s | 46.97 s
250 nM | Cc1cn(CC(C)(COP(=O)(O)OC[C@H]2O[C@@H](n3cnc4c(=O)[nH]c(N)nc43)[C@H](O)[C@@H]2OP(=O)(O)OC[C@H]2O[C@@H](n3cnc4c(=O)[nH]c(N)nc43)[C@H](O)[C@@H]2OP(=O)(O)OC[C@H]2O[C@@H](n3cc(C)c(=O)[nH]c3=O)C[C@@H]2OP(=O)(O)OC[C@H]2O[C@@H](n3cnc4c(=O)[nH]c(N)nc43)[C@H](O)[C@@H]2OP(=O)(O)OC[C@H]2O[C@@H](n3cc(C)c(=O)[nH]c3=O)C[C@@H]2OP(=O)(O)OC[C@H]2O[C@@H](n3cnc4c(=O)[nH]c(N)nc43)[C@H](O)[C@@H]2OP(=O)(O)OC[C@H]2O[C@@H](n3cnc4c(=O)[nH]c(N)nc43)[C@H](O)[C@@H]2OP(=O)(O)OC[C@H]2O[C@@H](n3cc(C)c(=O)[nH]c3=O)C[C@@H]2OP(=O)(O)OC[C@H]2O[C@@H](n3cc(C)c(=O)[nH]c3=O)C[C@@H]2OP(=O)(O)OC[C@H]2O[C@@H](n3cnc4c(=O)[nH]c(N)nc43)[C@H](O)[C@@H]2OP(=O)(O)OC[C@H]2O[C@@H](n3cnc4c(=O)[nH]c(N)nc43)[C@H](O)[C@@H]2O)COP(=O)(O)O[C@H]2C[C@H](n3cc(C)c(=O)[nH]c3=O)O[C@@H]2COP(=O)(O)O[C@H]2[C@@H](O)[C@H](n3cnc4c(=O)[nH]c(N)nc43)O[C@@H]2COP(=O)(O)O[C@H]2[C@@H](O)[C@H](n3cnc4c(=O)[nH]c(N)nc43)O[C@@H]2CO)c(=O)[nH]c1=O (stereo partly specified) | 14.5 s | 32.28 s
